# Reference: publication PMC9459959, “Synthesis and Activity of 2-Acyl-cyclohexane-1,3-dione Congeners Derived from Peperomia Natural Products against the Plant p-Hydroxyphenylpyruvate Dioxygenase Herbicidal Molecular Target Site” (Plants, 2022)
# Read-outs that look alike come from different tables or passages of the source.
# Molecular target: T1, HPPD (p-hydroxyphenylpyruvate dioxygenase) (Arabidopsis thaliana, UniProt P93836)
# T1 construct: gene HPD; recombinant, overexpressed in E. coli, tested in total soluble protein extract; 1SP9 given only as docking structure
# T1 sequence (P93836 1-445): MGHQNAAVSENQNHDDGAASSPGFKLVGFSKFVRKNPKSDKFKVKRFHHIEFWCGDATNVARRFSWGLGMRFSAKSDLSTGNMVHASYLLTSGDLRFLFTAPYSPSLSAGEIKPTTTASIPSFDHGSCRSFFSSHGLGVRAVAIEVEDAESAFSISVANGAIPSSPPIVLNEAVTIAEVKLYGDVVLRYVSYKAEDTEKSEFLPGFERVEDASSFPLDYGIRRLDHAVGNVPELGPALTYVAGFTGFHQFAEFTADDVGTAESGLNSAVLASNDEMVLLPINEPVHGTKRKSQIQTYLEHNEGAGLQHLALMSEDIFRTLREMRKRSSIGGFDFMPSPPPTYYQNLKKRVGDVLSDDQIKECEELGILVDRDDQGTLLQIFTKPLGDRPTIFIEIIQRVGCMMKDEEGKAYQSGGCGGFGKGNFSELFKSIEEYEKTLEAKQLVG
# Assay: HPLC of homogentisate formed ([…] nm), dose-response
# Format: biochemical
Structure (SMILES),IC50 (read-out: I50 (μM) ^ab),"IC50 (15 min incubation, slow tight-binding class, E. coli total soluble protein extract, positive control, read-out: I50app)"
CCCCCCCCCC(=O)C1C(=O)CC(C)(C)CC1=O [4e],2.66 ± 0.95 µM,
O=C1CCCC(=O)C1C(=O)CCc1ccc(Cl)cc1 [16b],0.24 ± 0.02 µM,
CCCCCCCCCCCc1noc2c1C(=O)CCC2 [5a],> 100 µM,
Cc1ccccc1C=CC(=O)C1C(=O)CCCC1=O [9a],1.2 ± 0.14 µM,
CCCCCC(=O)C1C(=O)CCCC1=O [3b],2.93 ± 0.47 µM,
CCCCCc1noc2c1C(=O)CCC2 [3a],> 100 µM,
"CS(=O)(=O)c1ccc(C(=O)C2C(=O)CCCC2=O)c(Cl)c1 [sulcotrione, reference compound]",,0.25 ± 0.02 µM
COc1ccc(C=CC(=O)C2C(=O)CCCC2=O)cc1 [11a],12.3 ± 1.6 µM,
COc1cc(C=CC(=O)C2C(=O)CCCC2=O)cc(OC)c1OC [14a],2.06 ± 0.13 µM,
COc1ccc(CCC(=O)C2C(=O)CC(C)(C)CC2=O)cc1OC [12d],8.69 ± 1.32 µM,
Cc1noc2c1C(=O)C(O)CC2 (stereo not shown) [1c],> 100 µM,
COc1cccc(CCC(=O)C2C(=O)CC(C)(C)CC2=O)c1 [10d],1.5 ± 0.17 µM,
Cc1ccccc1C=CC(=O)C1C(=O)CC(C)(C)CC1=O [9c],28.7 ± 8.7 µM,
O=C(C=Cc1ccc([N+](=O)[O-])cc1)C1C(=O)CCCC1=O [19a],7.61 ± 0.89 µM,
CCCCCC(=O)C1C(=O)CC(C)(C)CC1=O [3e],4.17 ± 0.45 µM,
CCCCCCCCCC(=O)C1C(=O)CCCC1=O [4b],0.46 ± 0.06 µM,
CCCCCC(=O)C1=C(O)C(O)CCC1=O (stereo not shown) [3d],15.8 ± 4.9 µM,
COc1cccc(C=CC(=O)C2C(=O)CCCC2=O)c1 [10a],0.89 ± 0.1 µM,
CC(=O)C1=C(O)C(O)C(C)(C)CC1=O (stereo not shown) [1h],166 ± 19.7 µM,
Cc1noc2c1C(=O)CCC2 [1a],> 100 µM,
CCCCCCCCCCCC(=O)C1C(=O)CCCC1=O [5b],0.3 ± 0.03 µM,
CCCCCCCCCc1noc2c1C(=O)CCC2 [4a],> 100 µM,
CC(=O)CCCC(=O)C1C(=O)CC(C)(C)CC1=O [7b],17.2 ± 2.6 µM,

Structure (SMILES),IC50 (read-out: I50 (μM) ^ab),"IC50 (15 min incubation, slow tight-binding class, E. coli total soluble protein extract, positive control, read-out: I50app)"
COc1ccc(CCC(=O)C2C(=O)CCCC2=O)cc1OC [12b],1.35 ± 0.18 µM,
CN(C)c1ccc(CCC(=O)C2C(=O)CC(C)(C)CC2=O)cc1 [15d],3.46 ± 0.64 µM,
COc1cc(C=CC(=O)C2C(=O)CC(C)(C)CC2=O)cc(OC)c1OC [14c],2.22 ± 0.5 µM,
O=C(/C=C/c1ccc(Br)cc1)C1=C(O)C(O)CCC1=O (stereo not shown) [17b],28.7 ± 4.82 µM,
CCCC(=O)C1C(=O)CCCC1=O [2a],35.1 ± 6.24 µM,
O=C1CCCC(=O)C1C(=O)CCc1ccccc1 [8b],1.27 ± 0.09 µM,
CC(=O)C1C(=O)CCCC1=O [1b],23.1 ± 4.34 µM,
CCCCCc1noc2c1C(=O)C(O)CC2 (stereo not shown) [3c],> 100 µM,
CCCCCCCCCCCCCCCCC(=O)C1C(=O)CCCC1=O [6a],1.58 ± 0.2 µM,
CCCC(=O)C1C(=O)CC(C)(C)CC1=O [2b],16.6 ± 4.36 µM,
CC1(C)CC(=O)C(C(=O)C=Cc2ccccc2)C(=O)C1 [8d],58.6 ± 8.67 µM,
O=C(C=Cc1cccc(Br)c1)C1C(=O)CCCC1=O [18a],0.82 ± 0.08 µM,
CC(=O)C1=C(O)C(O)CCC1=O (stereo not shown) [1d],> 1000 µM,
COc1ccc(CCC(=O)C2=C(O)C(O)CCC2=O)cc1 (stereo not shown) [11c],59.5 ± 11.8 µM,
COc1ccc(CCC(=O)C2C(=O)CCCC2=O)cc1 [11b],2.36 ± 0.3 µM,
COc1ccc(CCC(=O)C2C(=O)CC(C)(C)CC2=O)cc1 [11e],12.9 ± 2.18 µM,
CN(C)c1ccc(CCC(=O)C2C(=O)CCCC2=O)cc1 [15b],4.47 ± 0.51 µM,
COc1cc(CCC(=O)C2C(=O)CC(C)(C)CC2=O)cc(OC)c1OC [14d],2.29 ± 0.25 µM,
COc1cccc(C=CC(=O)C2C(=O)CC(C)(C)CC2=O)c1 [10c],6.4 ± 1.2 µM,
CCCCCCCCCCCc1noc2c1C(=O)C(O)CC2 (stereo not shown) [5c],> 100 µM,
Cc1noc2c1C(=O)C(O)C(C)(C)C2 (stereo not shown) [1g],> 100 µM,
CC1(C)CC(=O)C(C(=O)CCc2ccccc2)C(=O)C1 [8e],2.17 ± 0.37 µM,
O=C(/C=C/c1ccccc1)C1=C(O)C(O)CCC1=O (stereo not shown) [8c],59 ± 3.16 µM,

Structure (SMILES),IC50 (read-out: I50 (μM) ^ab),"IC50 (15 min incubation, slow tight-binding class, E. coli total soluble protein extract, positive control, read-out: I50app)"
CC(=O)CCCC(=O)C1C(=O)CCCC1=O [7a],9.6 ± 1.4 µM,
CC(=O)C1C(=O)CC(C)(C)CC1=O [1f],53.1 ± 17.1 µM,
COc1ccc(C=CC(=O)C2C(=O)CC(C)(C)CC2=O)cc1 [11d],141 ± 27 µM,
CC1(C)CC(=O)C(C(=O)CCc2ccc(Cl)cc2)C(=O)C1 [16d],2.05 ± 0.19 µM,
CCCCCCCCCc1noc2c1C(=O)C(O)CC2 (stereo not shown) [4c],> 100 µM,
CC1(C)CC(=O)C(C(=O)C=Cc2ccc([N+](=O)[O-])cc2)C(=O)C1 [19b],27.5 ± 2.39 µM,
O=C(C=Cc1ccccc1)C1C(=O)CCCC1=O [8a],5.43 ± 0.58 µM,
CCCCCCCCCCCC(=O)C1=C(O)C(O)CCC1=O (stereo not shown) [5d],0.18 ± 0.02 µM,
O=C(C=Cc1ccc(Br)cc1)C1C(=O)CCCC1=O [17a],7.55 ± 0.93 µM,
CC1(C)CC(=O)C(C(=O)C=Cc2cccc(Br)c2)C(=O)C1 [18b],2.42 ± 0.25 µM,
COc1ccc(C=CC(=O)C2C(=O)CCCC2=O)cc1OC [12a],9.16 ± 1.21 µM,
CCCCCCCCCCCc1noc2c1C(=O)C(O)C(C)(C)C2 (stereo not shown) [5g],> 100 µM,
Cc1ccccc1CCC(=O)C1C(=O)CCCC1=O [9b],0.97 ± 0.09 µM,
CCCCCCCCCCCC(=O)C1C(=O)CC(C)(C)CC1=O [5f],0.77 ± 0.11 µM,
COc1cccc(CCC(=O)C2C(=O)CCCC2=O)c1 [10b],0.31 ± 0.04 µM,
CCCCCCCCCCCc1noc2c1C(=O)CC(C)(C)C2 [5e],> 100 µM,
COc1ccc(C=CC(=O)C2C(=O)CC(C)(C)CC2=O)cc1OC [12c],14.1 ± 2.21 µM,
CCCCCCCCCCCCCCCCC(=O)C1C(=O)CC(C)(C)CC1=O [6b],1.7 ± 0.31 µM,
CCCCCCCCCC(=O)C1=C(O)C(O)CCC1=O (stereo not shown) [4d],1.25 ± 0.4 µM,
CC1(C)CC(=O)C(C(=O)C=Cc2ccc(Br)cc2)C(=O)C1 [17c],8.34 ± 1.57 µM,
Cc1noc2c1C(=O)CC(C)(C)C2 [1e],> 100 µM,
